A value given as a limit tells only on which side of the number the result lay.

For orientation: melting point means the temperature of the solid-liquid transition. `CCOC(=O)CO[C@H]1CC[C@H](CCN(C(=O)c2ccccc2)S(=O)(=O)c2ccc(Cl)cc2)CC1` gave a melting point of 81 to 82 °C.
With `CC(C)(C)OC(=O)NCC(=O)Oc1cccc(-c2cn3c(n2)sc2ccccc23)c1` the figure was 150 °C.
The same measure for `Cc1cccc(NC(=O)NC2C(=O)N(CC34CC5CC(CC(C5)C3)C4)c3ccccc3N(c3ccccc3)C2=O)c1` (configuration not stated): 244 to 246 °C; for `Cc1c(C=NO)c2cc(F)ccc2n1-c1ccc(O)cc1`: 162 to 163 °C; for `COC(=O)Cc1coc(-c2cc(C(C)(C)C)c(O)c(C(C)(C)C)c2)n1`: 126 to 128 °C.
The same measure for `CN1CCN(c2cc3c(cc2F)c(=O)c(C(=O)O)cn3C2CSC2)CC1`: 231 to 237 °C; for `NC(=S)C1CCCc2cc3c(nc21)CCC3` (configuration not stated): 118 °C; for `Nc1nccc2cc(CNC(=O)C3CCCN3)ccc12` (configuration not stated): 140 to 142 °C.
In turn, `Cc1c(F)c(F)c(COC(=O)C(c2cnc(C(C)(C)C)nc2)C(C)(C)C)c(F)c1F` (racemic) had a melting point of 91 °C.
With `CCOC(=O)c1c(C(C)C)nc(-c2ccccc2)c(C(C)C)c1-c1ccc(F)cc1` the figure was 138 to 140 °C; with `COc1cc2nc(N3CCCN(C(=O)C=Cc4cccnc4)CC3)nc(N)c2cc1OC`, 141 to 143 °C.
In the case of `CN1CCN(c2cccc3ccc(NCc4ccccc4)cc23)CC1`, the melting point lay within 115 to 117 °C.
`Cc1nc2cc3c(cc2[nH]1)C(C)(C)CC(=O)N3`: the melting point was 290 to 294 °C.
The compound `CC(C)c1[nH]nc2c1C(=O)c1c(NC(=O)CN3CCC(CN)CC3)cccc1-2` yielded a melting point of 218 to 220 °C.
In turn, `CCOC(=O)C1=C(C)NN=C(CC)C1c1cccc([N+](=O)[O-])c1` (configuration not stated) gave a melting point of 124 °C.
With `C=CCONC(=O)c1nc(-c2ccc(Cl)c(OC)c2F)cc(N)c1Cl` the figure was 169 to 172 °C.
In turn, `COC(=O)c1cc2cccc(OCc3cccnc3)c2o1` returned a melting point of 117 to 118 °C.
With `CC(C)c1ccc(C(=O)C2=C(O)C(=O)N(c3ncc(S(=O)(=O)c4ccc([N+](=O)[O-])cc4)s3)C2c2ccc(OC(F)(F)F)cc2)cc1` (configuration not stated) the figure was 276 to 278 °C.
Take `CC(C)CC(CS)C(N)=O` (configuration not stated): the melting point lay in the range of 147 to 154 °C.
The same measure for `Clc1ccc(C2OC(c3ccncc3)=Nc3ccc(Cl)cc32)cc1` (configuration not stated): 140 to 141 °C.
Compound `COc1ccc(-c2c(S(C)(=O)=O)ccc(C(=O)c3cnn(C(C)(C)C)c3OC(C)=O)c2C)cc1` displayed a melting point of 160 to 163 °C.
Compound `CSc1cnc2c(C)c(C)sc2c1O` returned a melting point of 233 to 236 °C.
With `CN(CCc1ccc(NC(=N)C(F)(F)F)cc1)Cc1ccccc1` the figure was 105 to 107 °C; with `CCc1ccc2c(c1)OC(C(F)(F)F)C(C(=O)O)=C2` (configuration not stated), 167 to 169 °C; with `N#Cc1ccc(COc2ccc3ccccc3c2C=O)cc1`, 163 to 164 °C.
Consider `Clc1ccc2c(c1)CNC2`, for which the melting point was 49 to 50 °C.
The same measure for `COc1cc2c(cc1OC)-c1c(C#N)sc(=NC(=O)c3ccccc3)n1CC2`: 274 to 276 °C; for `Cc1cc(-n2ccnc2)c2cccc(OCc3c(Cl)ccc(S(=O)(=O)N4CCC[C@H]4C(=O)NCCCN(C)C(=O)OC(C)(C)C)c3Cl)c2n1`: 75 °C; for `OCCc1ccc(Nc2ncc3c(n2)-c2ccccc2C(c2ccc(F)c(F)c2)C3)cc1` (configuration not stated): 170 to 172 °C.
Consider `CCc1sc(N2C(=O)c3ccccc3C2=O)c(C(=O)c2ccc(Cl)cc2)c1C`, for which the melting point fell in the range of 115 to 117 °C.
As for `CCc1cccc(CC(=O)O)c1OCCCc1cn(-c2ccc(C(F)(F)F)cn2)nc1C(CC)CC`, the melting point lay in the range of 130 to 131 °C.
The same measure for `Cc1c(-c2ccccc2)oc2c(C(=O)O)cccc12`: 220 to 222 °C; for `COP(=O)(OC)c1cc(O)c2c(=O)cc(-c3ccccc3)oc2c1`: 219 °C; for `CCCCOC(=O)CNC(=O)c1ncc(C(=O)OCCCC)cc1OC`: 80 to 81 °C.
For the compound `O=C(Nc1cccc(-c2ccnc3c(C(=O)c4cccs4)cnn23)c1)c1cccc(Br)c1`, the melting point is above 300 °C.
With `Oc1ccc(-c2nc(Br)c[nH]2)cc1` the figure was 210 to 212 °C; with `COc1cc(O)c(C)c(C(=O)O)c1Br`, 79 to 80 °C; with `CC(C)Cc1nn(C)c(=O)c2cc(Cc3ccccc3)sc12`, 97 to 98 °C.
The same measure for `CCCCCCCCCCCCCCCCC(Br)CO` (configuration not stated): 39 to 39.5 °C; for `CCOC(=O)c1ccc2c(c1)N=C(C)c1ccc(OC)cc1O2`: 117 to 118 °C; for `CC(=O)OCCCc1ccc(-c2ccc3cc(C(=O)OCc4ccccc4)ccc3c2)cc1C12CC3CC(CC(C3)C1)C2`: 132 °C.
With `CN(C)CC1CCc2cc(NC(=O)c3ccc(-c4ccc(N)cc4)cc3)ccc2C1` (configuration not stated) the figure was 148 to 150 °C; with `CC(C)c1c(O)cc(/C=C/c2ccccc2)cc1O`, 140 to 142 °C.
`CCCCCCCCCCCCOc1ccc(C(C)=O)o1` came in with a melting point of 66 to 67 °C.
In turn, `CCCCC(C)C(C=Cc1ccc(OCc2ccccc2)c(OCc2ccccc2)c1)OC` (configuration not stated) gave a melting point of 36 to 38 °C.
With `CS(=O)(=O)Oc1cc([N+](=O)[O-])c(F)cc1Cl` the figure was 64 to 65.5 °C; with `CCOC(=O)COc1ccc(NS(C)(=O)=O)cc1OC`, 118 to 119 °C; with `CC1=NN(C(=O)NS(=O)(=O)c2c(F)cccc2F)CC1`, 196 °C.
With `COC(=O)C1CC2CCC1N(C(=O)OC(C)(C)C)C2` (configuration not stated) the figure was 44 to 45 °C; with `CCN(CC)CCNC(=O)c1cc(Cl)c(N)cc1OCCOC(C)=O`, 101 to 102 °C; with `CC1(C2=C(O)C(=O)c3ccccc3C2=O)CCCCC1`, 79 °C.
`CC(C)C(C(=O)O)N(Cc1cccnc1)S(=O)(=O)c1ccc(-c2ccc(NC(=O)c3cc4ccccc4o3)cc2)cc1` (configuration not stated) showed a melting point of 261 to 262 °C.
The compound `O=C(CC1CCC2(CC1)OCCO2)N1CCN(c2ccccn2)CC1` had a melting point of 113 to 116 °C.
In the case of `COc1ccnc(CCc2nc3cc(-c4ccc(S(=O)(=O)N5CCN(Cc6ccccc6)CC5)cc4)cnc3[nH]2)c1`, the melting point lay in the range of 160 to 162 °C.
`COC1(c2cc(F)cc(Sc3ccc(C(F)(F)c4ccc(F)cc4)cc3)c2)CCOCC1` returned a melting point of 54 to 57 °C.
`CCOC(=O)C(NC(C)=O)(C(=O)OCC)[C@@H]1CC(=O)C[C@H]1N=[N+]=[N-]` (relative stereo) returned a melting point of 121 to 122 °C.
With `CCOC(=O)C1=CCCC[C@H]1S(=O)(=O)Nc1ccc(F)cc1Cl` the figure was 47 to 49 °C; with `COc1cc(-c2ccc(Cl)cc2)nc2c(C(=O)Nc3cccc(S(C)(=O)=O)c3)cnn12`, 265 °C; with `Fc1cccc2c(NCCc3ccc(Oc4cccc(C(F)(F)F)n4)cc3)ccnc12`, 157 °C.
With `Nc1nc(F)cc(OC(F)(F)F)n1` the figure was 86 to 89 °C; with `CC(O)(CN)c1ccc(Oc2ccc3c(c2)S(=O)(=O)NC2CCCN32)cc1` (configuration not stated), 76 to 78 °C; with `CC(C)=NNc1ccc(OCC(C)NCC(O)COc2ccccc2C#N)nn1` (configuration not stated), 121 to 123 °C.
For `COc1cc2nc(N3CCN(C(=O)C=Cc4cc(OC)c(OC)c(OC)c4)CC3)nc(N)c2cc1OC`, the melting point was in the range of 141 to 146 °C.
With `COC(=O)c1ccc2c(Cl)ccnc2c1` the figure was 118 to 119 °C; with `O=S(=O)(c1ccccc1)n1ccc2c(Cl)nc(-c3ccccc3)nc21`, 259 to 260 °C.
The same measure for `O=C1CCNc2ccccc2N1c1ccccc1`: 170 to 171 °C; for `COCCOc1ccc(CCNC(=O)/C=C/c2cccs2)cc1S(=O)(=O)NC(=S)NC(C)C`: 101 °C.
`O=C(Oc1cc(Cl)ccc1Cl)c1cc2ccccc2oc1=O` returned a melting point of 189 to 192 °C.
Regarding `CN(C)CCNC(=O)c1ccc(-c2cccc(CSCCOc3ccccc3)c2)cc1`, the melting point lay in the range of 75 to 78 °C.
Take `C=CCc1c(-c2cc(=O)c3c(O)cc(OCC(=O)OCC)cc3o2)ccc(OC)c1O`: the melting point is 155 °C.
With `OC1CSC(Oc2cccc(-c3cccnc3Cl)c2)C(O)C1O` (configuration not stated), the melting point is 130 °C.
With `CSc1nn2c(N3CCN(C)CC3)cc(C)nc2c1S(=O)(=O)c1ccc(C(C)C)cc1` the figure was above 230 °C; with `CC(C)NC(=O)C1(C(C)C)CCCC1C` (configuration not stated), 90.5 to 91.5 °C.
The same measure for `O=C1C=C(NC(=O)C(=O)c2cn(Cc3ccc(Cl)cc3)c3cccc(NC(=O)c4ccc(Cl)cc4)c23)CO1`: above 300 °C; for `CC1CC(=O)NN=C1c1ccc(-n2cncn2)nc1` (configuration not stated): 256 to 257 °C; for `O=S(c1[nH]c(Br)c(Br)c1-c1ccc(Cl)cc1)C(F)(F)F` (configuration not stated): 166 to 168 °C.
For `CCOC(=O)C(F)=C(C)NC(=O)Nc1cc(C(=O)OC(C)C)c(Cl)cc1F`, the melting point lay in the range of 150 to 152 °C.
Turning to `Nc1cccc(C(=O)c2cccc(C(=O)c3cccc(N)c3)c2)c1`, the melting point was 114 to 117 °C.
With `CNC(C)c1ccc(C2CCC(N(C)C(=O)c3ccc(Cl)cc3)CC2)cc1` (configuration not stated) the figure was 153 to 155 °C.
The compound `O=S1(=O)c2ccccc2N(c2ccccc2O)c2ccccc21` showed a melting point of 282 to 287 °C.
With `c1ccc(Cn2cncc2-c2cnc(-c3ccccc3)nc2)cc1` the figure was 140 °C; with `CCOC(=O)c1cc(C)c(Cl)nc1Nc1ccc(I)cc1`, 144 to 146 °C; with `COc1ccc(C=C2C(=O)c3cc(O)ccc3OC2c2ccc(OC)cc2)cc1` (configuration not stated), 199 to 201 °C.
The same measure for `CNNC(=O)OC(C)(C)C`: 50 °C; for `COC(=O)Nc1cccc(C)c1CNc1cc(C(=O)N(C)C)cc2c1nc(C)n2C`: 193 to 195 °C; for `CCn1ncc2c3noc(-c4ccccc4C)c3cnc21`: 168 to 170 °C.
The same measure for `COc1cc(C=CC2=NN=C(C)Cc3cc(OC)c(OC)cc32)ccc1O`: 192 to 193 °C.

These data come from a melting point compilation (Tetko et al.; mined from patent text by program, amines drawn as free bases though some values may be those of a salt).
